In US10377783B2, “Methods and compounds for enhancing contrast in magnetic resonance imaging (MRI)” (priority 2015, dated 2019):

Legend:
male Sprague-Dawley rats = experiment: In vivo acute toxicity; set-up: species or system rat
Method: Compound 1 (aq., 12.5 mM) was injected intravenously into 4 male rats (Sprague Dawley Crl:SD, 315-340 g) at a dosage of 0.02 mmol/kg following anaesthesia with 5% isoflurane. […] Body weight measurements and hematology were performed on days −1, 7 and 14. Compound 6 (aq., 6.25 mM) was injected intravenously into 8 male rats (Sprague Dawley Crl:SD, 327-365 g) at a dosage of 0.01 mmol/kg following anaesthesia with 5% isoflurane. […] Body weight measurements and hematology were performed on days −1, 1 and 8. Following euthanasia, the heart, lungs, liver, kidneys, spleen, thyroid and pituitary glands were grossly examined during necropsy, and samples of the brain, heart (compound 1 only), lungs, liver, kidneys, spleen and thymus (compound 1 only) were microscopically evaluated during histopathological examination.
The acute toxicities of 1 and 6 were studied in 8 week old male Sprague-Dawley rats. The toxicity of 1 was studied over a period of 14 days, in four rats; while the toxicity of 6 was studied over a period of 8 days, in 8 rats. Compound 1 was injected intravenously at a dosage of 0.02 mmol/kg (c=12.5 mM), while 6 was injected at a dosage of 0.01 mmol/kg (c=6.25 mM). These dosages were chosen because the dosage for the only Mn^II-based compound approved in North America, Teslascan, was 0.005 mmol/kg; and the inventors were anticipating a […] degree of toxicity.

[1] = test system: male rat (Sprague Dawley Crl:SD); experiment: In vivo MRI imaging of 2 and 6, T2-weighted scans; conditions: for T2-weighted MRI signal intensity, liver: baseline (−10 min) 965; for T2-weighted MRI signal intensity, lean muscle: baseline (−10 min) 2673; for T2-weighted MRI signal intensity, renal cortex: baseline (−10 min) 4759; for T2-weighted MRI signal intensity, renal medulla: baseline (−10 min) 6454; for T2-weighted MRI signal intensity, bladder: baseline (−10 min) 12921; for T2-weighted MRI signal intensity, fat: baseline (−10 min) 14834
Method: (§1) Compound 1 (aq., 12.5 mM) was injected intravenously into 2 male rats (Sprague Dawley Crl:SD, 312-338 g) at a dosage of 0.02 mmol/kg following anaesthesia with 5% isoflurane. Compound 2 (aq., 6.25 mM) was injected intravenously into 1 male rat (Sprague Dawley Crl:SD, 349 g) at a dosage of 0.01 mmol/kg following anaesthesia with 5% isoflurane. Compound 6 (aq., 6.25 mM) was injected intravenously into 1 male rat (Sprague Dawley Crl:SD, 341 g) at a dosage of 0.01 mmol/kg following anaesthesia with 5% isoflurane. Anesthesia was maintained at 2-2.5% isoflurane through a nose cone for the duration of the scans. Fast-spin-echo images were collected for 45 mins. immediately post-injection. For compound 1, the DT1-weighted RARE (Rapid Acquisition Relaxation Enhancement) scans were acquired with an echo time of 10 ms, and a repetition time=respiratory cycle duration (˜1100 ms). Both T1- and T2-weighted scans were collected on compounds 2 and 6.
(§2) The in vivo contrast potential of compounds 1, 2 and 6 were studied via the collection of fast-spin-echo images for 30-45 minutes immediately following injection of an aqueous solution of each complex. The dosage chosen for 1 was 0.02 mmol/kg (c=[…]) while the dosage chosen for 2 and 6 was 0.01 mmol/kg (c=6.25 mM). Predominantly T1-weighted scans with some T2-weighting were performed on two rats injected with 1.
(§3) Both T1- and T2-weighted scans were performed on two rats injected with 2 and its dimeric analogue 6.

[2] = test system: male rat (Sprague Dawley Crl:SD); experiment: In vivo MRI imaging of 2 and 6, T1-weighted scans; conditions: for T1-weighted MRI signal intensity, bladder: baseline (−10 min) 5085; for T1-weighted MRI signal intensity, lean muscle: baseline (−10 min) 5640; for T1-weighted MRI signal intensity, liver: baseline (−10 min) 7276; for T1-weighted MRI signal intensity, renal medulla: baseline (−10 min) 7725; for T1-weighted MRI signal intensity, renal cortex: baseline (−10 min) 8005; for T1-weighted MRI signal intensity, fat: baseline (−10 min) 14509
Method: as §1, §2, §3

[3] = 8 min after injection of 2, 0.01 mmol/kg iv
[4] = 22 min after injection of 2, 0.01 mmol/kg iv
[5] = 37 min after injection of 2, 0.01 mmol/kg iv
[6] = injection of 2, 0.01 mmol/kg iv, first 40 min
[7] = 1 min after injection of 2, 0.01 mmol/kg iv
[8] = 15 min after injection of 2, 0.01 mmol/kg iv
[9] = 30 min after injection of 2, 0.01 mmol/kg iv
[10] = 45 min after injection of 2, 0.01 mmol/kg iv
[11] = injection of 2, 0.01 mmol/kg iv, first 45 min

## CC1=NCCNCCNCCN=C(C)c2cccc1n2.O.O.[Cl-].[Cl-].[Mn+2] [Compound 1, [MnL1Cl2].2H2O]
Male Sprague-Dawley rats; 0.02 mmol/kg iv, 4 rats, 14 days
  acute toxicity (overall): minimally- to non-acutely toxic
Male Sprague-Dawley rats; at the studied dosages
  toxicity (summary of the in vivo studies): negligible toxicity

## CC1=NCCOCCOCCN=C(C)c2cccc1n2.O.O.[Cl-].[Cl-].[Mn+2] [Compound 2, [MnL2Cl2].2H2O]
[1]; [3]
  T2-weighted MRI signal intensity, liver: 788 arbitrary units of voxel intensity
  T2-weighted MRI signal intensity, lean muscle: 2386 arbitrary units of voxel intensity
  T2-weighted MRI signal intensity, renal cortex: 3367 arbitrary units of voxel intensity
  T2-weighted MRI signal intensity, renal medulla: 5342 arbitrary units of voxel intensity
  T2-weighted MRI signal intensity, bladder: 7977 arbitrary units of voxel intensity
  T2-weighted MRI signal intensity, fat: 14550 arbitrary units of voxel intensity
[1]; [4]
  T2-weighted MRI signal intensity, liver: 577 arbitrary units of voxel intensity
  T2-weighted MRI signal intensity, lean muscle: 2451 arbitrary units of voxel intensity
  T2-weighted MRI signal intensity, renal cortex: 3307 arbitrary units of voxel intensity
  T2-weighted MRI signal intensity, renal medulla: 5306 arbitrary units of voxel intensity
  T2-weighted MRI signal intensity, bladder: 667 arbitrary units of voxel intensity
  T2-weighted MRI signal intensity, fat: 12923 arbitrary units of voxel intensity
[1]; [5]
  T2-weighted MRI signal intensity, liver: 400 arbitrary units of voxel intensity
  T2-weighted MRI signal intensity, lean muscle: 2377 arbitrary units of voxel intensity
  T2-weighted MRI signal intensity, renal cortex: 3034 arbitrary units of voxel intensity
  T2-weighted MRI signal intensity, renal medulla: 4215 arbitrary units of voxel intensity
  T2-weighted MRI signal intensity, bladder: 512 arbitrary units of voxel intensity
  T2-weighted MRI signal intensity, fat: 13440 arbitrary units of voxel intensity
[1]; [6]
  Max. intensity change, T2-weighted, bladder: −96%
  Max. intensity change, T2-weighted, fat: −13%
  Max. intensity change, T2-weighted, lean muscle: −11%
  Max. intensity change, T2-weighted, liver: −59%
  Max. intensity change, T2-weighted, renal cortex: −36%
  Max. intensity change, T2-weighted, renal medulla: −35%
[2]; 0.01 mmol/kg iv
  excretion (summary): rapid excretion
[2]; [7]
  T1-weighted MRI signal intensity, bladder: 5155 arbitrary units of voxel intensity
  T1-weighted MRI signal intensity, lean muscle: 5841 arbitrary units of voxel intensity
  T1-weighted MRI signal intensity, liver: 7568 arbitrary units of voxel intensity
  T1-weighted MRI signal intensity, renal medulla: 9169 arbitrary units of voxel intensity
  T1-weighted MRI signal intensity, renal cortex: 9368 arbitrary units of voxel intensity
  T1-weighted MRI signal intensity, fat: 15671 arbitrary units of voxel intensity
[2]; [8]
  T1-weighted MRI signal intensity, bladder: 16182 arbitrary units of voxel intensity
  T1-weighted MRI signal intensity, lean muscle: 5696 arbitrary units of voxel intensity
  T1-weighted MRI signal intensity, liver: 7385 arbitrary units of voxel intensity
  T1-weighted MRI signal intensity, renal medulla: 8472 arbitrary units of voxel intensity
  T1-weighted MRI signal intensity, renal cortex: 10144 arbitrary units of voxel intensity
  T1-weighted MRI signal intensity, fat: 15845 arbitrary units of voxel intensity
[2]; [9]
  T1-weighted MRI signal intensity, bladder: 11996 arbitrary units of voxel intensity
  T1-weighted MRI signal intensity, lean muscle: 5569 arbitrary units of voxel intensity
  T1-weighted MRI signal intensity, liver: 7812 arbitrary units of voxel intensity
  T1-weighted MRI signal intensity, renal medulla: 7969 arbitrary units of voxel intensity
  T1-weighted MRI signal intensity, renal cortex: 10702 arbitrary units of voxel intensity
  T1-weighted MRI signal intensity, fat: 15745 arbitrary units of voxel intensity
[2]; [10]
  T1-weighted MRI signal intensity, bladder: 13104 arbitrary units of voxel intensity
  T1-weighted MRI signal intensity, lean muscle: 5574 arbitrary units of voxel intensity
  T1-weighted MRI signal intensity, liver: 7683 arbitrary units of voxel intensity
  T1-weighted MRI signal intensity, renal medulla: 8615 arbitrary units of voxel intensity
  T1-weighted MRI signal intensity, renal cortex: 11485 arbitrary units of voxel intensity
  T1-weighted MRI signal intensity, fat: 15860 arbitrary units of voxel intensity
[2]; [11]
  Max. intensity change, T1-weighted, bladder: 218%
  Max. intensity change, T1-weighted, fat: 9%
  Max. intensity change, T1-weighted, lean muscle: 3%
  Max. intensity change, T1-weighted, liver: 7%
  Max. intensity change, T1-weighted, renal cortex: 43%
  Max. intensity change, T1-weighted, renal medulla: 19%
[2]; renal cortex, liver and lean muscle, 0.01 mmol/kg iv
  effect on T1-weighted signal intensity: causes an enhancement in the renal cortex and has negligible effect on liver and lean muscle tissue
